Measurements from patent US8633242B2, “Benzylidene indanones and processes for preparation and use thereof” (Council of Scientific and Industrial Research, priority 2011, dated 2014).

Assays:
HCT (Colon) = experiment: Sulphorhodamine B cytotoxicity assay, HCT; format: cell-based, human; design: key to Human cancer cell lines IC50, HCT (Colon): Inactive: inactive, if IC50 > 100 μM; conditions: for IC50 / Human cancer cell lines IC50, HCT (Colon): SRB assay, 48 hours incubation; for IC50: read-out: Human cancer cell lines IC50, HCT (Colon)
Experimental: (§1) The benzylidene analogues were evaluated by Sulphorhodamine B Assay as per reported method [Skehan et al., J. Natl. Cancer Inst. 1990, 82, 1107]. The human cancer cell lines procured from National Cancer institute, Frederick, U.S.A. were used in present study. Cells were grown in tissue culture flasks in complete growth medium (RPMI-1640 medium with 2 mM glutamine, pH 7.4 supplemented with 10% fetal bovine serum, 100 μg/ml streptomycin and 100 units/ml penicillin) in a carbon dioxide incubator (37° C., 5% CO2, 90% RH). The cells at subconfluent stage were harvested from the flask by treatment with trypsin (0.05% in PBS (pH 7.4) containing 0.02% EDTA). Cells with viability of more than 98%, as determined by trypan blue exclusion, were used for determination of cytotoxicity. The cell suspension required concentration of cells was prepared in complete growth medium. Stock solution of 2×10^−2 M of compounds were prepared in DMSO and further dilution was carried out complete growth medium containing 50 μg/ml of gentamycin to obtained working test solution of required concentration. In vitro cytotoxicity against various human cancer cell lines was determined using 96-well cell culture plates. The 100 μl of cell suspension was added to each well of the 96-well cell culture plates. The cells were allowed to grow in CO2 incubator (37° C., 5% CO2, 90% RH) for 24 hours. The test materials in complete growth medium (100 μl) were added after 24 hours incubation to the wells containing cell suspension. The plates were further incubated for 48 hours (37° C. in an atmosphere of 5% CO2 and 90% relative humidity) in a carbon dioxide incubator after addition of test material and then the cell growth was stopped by gently layering trichloroacetic acid (50% TCA, 50 μl) on top of the medium in all the wells. The plates were incubated at 4° C. for one hour to fix the cells attached to the bottom of the wells. The liquid of all the wells was gently pipetted out and discarded. The plates were washed five times with distilled water to remove TCA, growth medium low molecular weight metabolites, serum proteins etc. and air-dried. Cell growth was measured by staining with sulforhodamine B dye. The adsorbed dye was dissolved in Tris-HCl Buffer (100 μl/well, 0.01M, pH 10.4) and plates were gently stirred for 10 minutes on a mechanical stirrer. The optical density (OD) was recorded on ELISA reader at 540 nm. 5-Fluorouracil, Paclitaxel (Taxol), Mitomycin-c and Adriamycin were used as positive controls.

THP-1 (Leukemia) = experiment: Sulphorhodamine B cytotoxicity assay, THP-1; format: cell-based, human; design: key to Human cancer cell lines IC50, THP-1 (Leukemia): Inactive: inactive, if IC50 > 100 μM; conditions: for IC50: read-out: Human cancer cell lines IC50, THP-1 (Leukemia)
Experimental: as §1

HeLa (Cervix) = experiment: Sulphorhodamine B cytotoxicity assay, HeLa; format: cell-based, human; design: key to Human cancer cell lines IC50, HeLa (Cervix): Inactive: inactive, if IC50 > 100 μM; conditions: for IC50 / Human cancer cell lines IC50, HeLa (Cervix): SRB assay, 48 hours incubation; for IC50: read-out: Human cancer cell lines IC50, HeLa (Cervix)
Experimental: as §1

MCF-7 (Breast cancer) = experiment: Sulphorhodamine B cytotoxicity assay, MCF-7; format: cell-based, human; design: key to Human cancer cell lines IC50, MCF-7 (Breast cancer): Inactive: inactive, if IC50 > 100 μM; conditions: for IC50: read-out: Human cancer cell lines IC50, MCF-7 (Breast cancer)
Experimental: as §1

DU-145 (prostate) = experiment: Sulphorhodamine B cytotoxicity assay, DU-145; format: cell-based, human; design: key to Human cancer cell lines IC50, DU-145 (prostate): Inactive: inactive, if IC50 > 100 μM; conditions: SRB assay, 48 hours incubation; for IC50: Homo sapiens, DU-145, read-out: Human cancer cell lines IC50, DU-145 (prostate)
Experimental: as §1

A549 (Lung) = experiment: Sulphorhodamine B cytotoxicity assay, A549; format: cell-based, human; design: key to Human cancer cell lines IC50, A549 (Lung): Inactive: inactive, if IC50 > 100 μM; conditions: for IC50 / Human cancer cell lines IC50, A549 (Lung): SRB assay, 48 hours incubation; for IC50: read-out: Human cancer cell lines IC50, A549 (Lung)
Experimental: as §1

tubulin protein = experiment: In-vitro tubulin polymerisation inhibition assay; format: biochemical; design: key to Tubulin polymerisation inhibition IC50: Inactive: inactive, if IC50 > 10 μM; conditions: for IC50: read-out: Tubulin polymerisation inhibition IC50; for IC50 / Tubulin polymerisation inhibition IC50: tubulin 3 mg/mL, 37° C., 340 nm, 1 h
Experimental: The tubulin polymerization experiment was performed using ‘assay kit’ (Cytoskeleton USA) following manufacturer's protocol based on the procedure described by of Shelanski et al. (1973) and Lee et al. (1977). Briefly, tubulin protein (3 mg/mL) in tubulin polymerization buffer (80 mM PIPES, pH 6.9, 2 mM MgCl2, 0.5 mM EGTA, 1 mM GTP and 15% glycerol) was placed in pre-warmed 96-well microtiter plates at 37° C. in the presence of test compounds with variable concentrations. All samples were mixed well and polymerization was monitored kinetically at 340 nm every min for 1 h using a Spectramax plate reader. Podophyllotoxin and etoposide were used as positive controls and DMSO as negative control. The IC50 value was determined from dose-dependent analysis and is defined as the concentration that inhibits the rate of polymerization by 50%.
Podophyllotoxin and etoposide, standard tubulin polymerisation inhibitors were used as positive controls.

PC-3 (prostate) = experiment: Sulphorhodamine B cytotoxicity assay, PC-3; format: cell-based, human; design: key to Human cancer cell lines IC50, PC-3 (prostate): Inactive: inactive, if IC50 > 100 μM; conditions: for Human cancer cell lines IC50, PC-3 (prostate) / IC50: SRB assay, 48 hours incubation; for IC50: Homo sapiens, read-out: Human cancer cell lines IC50, PC-3 (prostate)
Experimental: as §1

[1] = Homo sapiens, MCF7, SRB assay, 48 hours incubation
[2] = Homo sapiens, THP-1, SRB assay, 48 hours incubation

| melting point | Tubulin polymerisation inhibition IC50 (tubulin protein) | Compound | IC50 (MCF-7 (Breast cancer); [1]) | Human cancer cell lines IC50, DU-145 (prostate) (DU-145 (prostate)) | IC50 (A549 (Lung); Homo sapiens, A549) | IC50 (HCT (Colon); Homo sapiens) | IC50 (THP-1 (Leukemia); [2]) | IC50 (HeLa (Cervix); Homo sapiens, HeLa) | IC50 (tubulin protein) | Human cancer cell lines IC50, PC-3 (prostate) (PC-3 (prostate)) | Human cancer cell lines IC50, HeLa (Cervix) (HeLa (Cervix)) | also measured |
| --- | --- | --- | --- | --- | --- | --- | --- | --- | --- | --- | --- | --- |
|  |  | O=c1[nH]cc(F)c(=O)[nH]1 [5-Fluorouracil, reference compound] |  |  |  |  |  |  |  |  |  | inhibition at 20 µM (HCT (Colon); Homo sapiens, positive control at 20 μM): 65%; inhibition at 20 µM (THP-1 (Leukemia); Homo sapiens, THP-1, positive control at 20 μM): 74%; inhibition at 20 µM (HeLa (Cervix); Homo sapiens, HeLa, positive control at 20 μM): 70% |
|  |  | COc1cccc2c1C(=O)c1c(O)c3c(c(O)c1C2=O)C[C@@](O)(C(=O)CO)C[C@@H]3O[C@H]1C[C@H](N)[C@H](O)[C@H](C)O1 [Adriamycin, reference compound] |  |  |  |  |  |  |  |  |  | inhibition at 1 µM (MCF-7 (Breast cancer); Homo sapiens, MCF7, positive control at 1 μM): 65% |
| 118 to 120 °C |  | COc1cc(/C=C2\C(=O)c3cc(OC)c(OC)c(OC)c3C2c2cc(OC)c(OC)c(OC)c2)cc(OC)c1OC (centres unmarked) [Compound 9, 2-(3″,4″,5″-trimethoxybenzylidene), 3-(3′,4′,5′-trimethoxyphenyl)-4,5,6-trimethoxy indan-1-one] | 38.9 µM | Inactive | 67.6 µM | 39.7 µM | 64.9 µM | 82.3 µM | 4.62 µM | Inactive |  | inhibition of tubulin polymerisation, in words (tubulin protein): strong inhibition |
| 190 to 192 °C | Inactive | COc1cc(C2/C(=C/c3ccc([N+](=O)[O-])cc3)C(=O)c3cc(OC)c(OC)c(OC)c32)cc(OC)c1OC (centres unmarked) [Compound 11, 2-(4″-nitrobenzlidene),3-(3′,4′,5′-trimethoxyphenyl)-4,5,6-trimethoxy indan-1-one] | 88.1 µM | Inactive |  | 97.3 µM | 89.5 µM |  |  | Inactive | Inactive | Human cancer cell lines IC50, A549 (Lung) (A549 (Lung)): Inactive |
| 139 to 141 °C | Inactive | COc1cc(C2C(=Cc3ccccc3)C(=O)c3cc(OC)c(OC)c(OC)c32)cc(OC)c1OC (centres unmarked) [Compound 14, 2-benzylidene, 3-(3′,4′,5′-trimethoxyphenyl)-4,5,6-trimethoxy indan-1-one] | 42.5 µM | Inactive | 47.5 µM | 14.9 µM | 32.7 µM | 14.1 µM |  |  |  | IC50 (PC-3 (prostate)): 50.6 µM |
| 191 to 192 °C | Inactive | COc1ccccc1/C=C1\C(=O)c2cc(OC)c(OC)c(OC)c2C1c1cc(OC)c(OC)c(OC)c1 (centres unmarked) [Compound 19, 2-(2″-methoxybenzylidene), 3-(3′,4′,5′-trimethoxyphenyl)-4,5,6-trimethoxy indan-1-one] |  |  | 62.6 µM |  | 29.3 µM |  |  | Inactive | Inactive | IC50 (DU-145 (prostate)): 21.5 µM; Human cancer cell lines IC50, HCT (Colon) (HCT (Colon)): Inactive |
|  |  | COc1cc([C@@H]2c3cc4c(cc3[C@@H](O[C@@H]3O[C@@H]5CO[C@@H](C)O[C@H]5[C@H](O)[C@H]3O)[C@H]3COC(=O)[C@H]23)OCO4)cc(OC)c1O [Etoposide, reference compound] | 1.5 µM | Inactive | 5.4 µM | 6.5 µM | < 1 µM | < 1 µM | […] | Inactive |  |  |
|  |  | CO[C@@]12[C@H](COC(N)=O)C3=C(C(=O)C(C)=C(N)C3=O)N1C[C@@H]1N[C@@H]12 [Mitomycin-c, reference compound] |  |  |  |  |  |  |  |  |  | % Inhibition, PC-3 (Prostate) (PC-3 (prostate); positive control at 1 μM): 61% |
|  |  | CC(=O)O[C@H]1C(=O)[C@@]2(C)[C@H]([C@H](OC(=O)c3ccccc3)[C@]3(O)C[C@H](OC(=O)[C@H](O)[C@@H](NC(=O)c4ccccc4)c4ccccc4)C(C)=C1C3(C)C)[C@]1(OC(C)=O)CO[C@@H]1C[C@@H]2O [Paclitaxel, reference compound] |  |  |  |  |  |  |  |  |  | inhibition at 1 µM (A549 (Lung); Homo sapiens, A549, positive control at 1 μM): 69% |
|  |  | COc1cc([C@@H]2c3cc4c(cc3[C@H](O)[C@H]3COC(=O)[C@H]23)OCO4)cc(OC)c1OC [Podophyllotoxin, reference compound] | < 1 µM |  | < 1 µM | < 1 µM | < 1 µM | < 1 µM | […] |  |  | IC50 (DU-145 (prostate)): 91.5 µM; IC50 (PC-3 (prostate)): 91.5 µM |

| Compound | melting point | Tubulin polymerisation inhibition IC50 (tubulin protein) | IC50 (MCF-7 (Breast cancer); [1]) | Human cancer cell lines IC50, DU-145 (prostate) (DU-145 (prostate)) | IC50 (A549 (Lung); Homo sapiens, A549) | IC50 (HCT (Colon); Homo sapiens) | IC50 (THP-1 (Leukemia); [2]) | IC50 (HeLa (Cervix); Homo sapiens, HeLa) | IC50 (tubulin protein) | Human cancer cell lines IC50, PC-3 (prostate) (PC-3 (prostate)) | Human cancer cell lines IC50, HeLa (Cervix) (HeLa (Cervix)) | also measured |
| --- | --- | --- | --- | --- | --- | --- | --- | --- | --- | --- | --- | --- |
| COc1ccc(/C=C2\C(=O)c3cc(OC)c(OC)c(OC)c3C2c2cc(OC)c(OC)c(OC)c2)cc1 (centres unmarked) [Compound 10, 2-(4″-methoxybenzylidene),3(3′,4′,5′-trimethoxyphenyl)-4,5,6-trimethoxy indan-1-one] | 188 to 190 °C |  | 3.18 µM |  | 13.4 µM | 18.6 µM | 0.88 µM | 21 µM | 4.67 µM |  |  | anticancer activity against human breast cancer cells (MCF-7), in words (MCF-7 (Breast cancer)): potent anticancer activity; IC50 (DU-145 (prostate)): 44.9 µM; activity against leukemia cell lines (THP), in words (THP-1 (Leukemia)): potent activity; inhibition of tubulin polymerisation, in words (tubulin protein): strong inhibition; IC50 (PC-3 (prostate)): 65.7 µM |
| COc1cc(C2/C(=C/c3cccc([N+](=O)[O-])c3)C(=O)c3cc(OC)c(OC)c(OC)c32)cc(OC)c1OC (centres unmarked) [Compound 12, 2-(3″-nitrobenzylidene),3-(3′,4′,5′-trimethoxyphenyl)-4,5,6-trimethoxy indan-1-one] | 215 to 217 °C | Inactive |  | Inactive |  |  |  |  |  | Inactive | Inactive | Human cancer cell lines IC50, MCF-7 (Breast cancer) (MCF-7 (Breast cancer); SRB assay, 48 hours incubation): Inactive; Human cancer cell lines IC50, A549 (Lung) (A549 (Lung)): Inactive; Human cancer cell lines IC50, HCT (Colon) (HCT (Colon)): Inactive; Human cancer cell lines IC50, THP-1 (Leukemia) (THP-1 (Leukemia); SRB assay, 48 hours incubation): Inactive |
| COc1ccc(/C=C2\C(=O)c3cc(OC)c(OC)c(OC)c3C2c2cc(OC)c(OC)c(OC)c2)cc1OC (centres unmarked) [Compound 13, 2-(3″,4″-dimethoxybenzylidene), 3-(3′,4′,5′-trimethoxyphenyl)-4,5,6-trimethoxy indan-1-one] | 179 to 180 °C |  | 80.8 µM | Inactive |  |  | 62 µM |  | 0.62 µM | Inactive | Inactive | Human cancer cell lines IC50, A549 (Lung) (A549 (Lung)): Inactive; Human cancer cell lines IC50, HCT (Colon) (HCT (Colon)): Inactive; inhibition of tubulin polymerisation, in words (tubulin protein): strong inhibition |
